Results reported in patent US8415351B2 (priority 2007, dated 2013).

Tests used:
[1] = biological target: T1, HCV polymerase 1A (Δ21 NS5B, H77) (Hepatitis C virus genotype 1a, UniProt P27958); assay: biochemical; details: IC50 1a
T1 construct: 20 to 50 nM Δ21 NS5B
Outline: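 Radiometric assay with Δ21 NS5B (H77): 20 μM CTP, 20 μM ATP, 1 μM ^3H-UTP, 5 nM template RNA, 2–4 h at room temperature. RNA precipitated with spermine, filter-captured and counted. IC50 from non-linear fit of retained cpm vs inhibitor concentration (tight-binding equation).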

[2] = biological target: T2, HCV polymerase 1B (Δ21 NS5B, BK) (Hepatitis C virus genotype 1b, UniProt P26663); assay: biochemical
T2 construct: 20 to 50 nM Δ21 NS5B
T2 sequence (P26663 2420-2989, stated change not applied): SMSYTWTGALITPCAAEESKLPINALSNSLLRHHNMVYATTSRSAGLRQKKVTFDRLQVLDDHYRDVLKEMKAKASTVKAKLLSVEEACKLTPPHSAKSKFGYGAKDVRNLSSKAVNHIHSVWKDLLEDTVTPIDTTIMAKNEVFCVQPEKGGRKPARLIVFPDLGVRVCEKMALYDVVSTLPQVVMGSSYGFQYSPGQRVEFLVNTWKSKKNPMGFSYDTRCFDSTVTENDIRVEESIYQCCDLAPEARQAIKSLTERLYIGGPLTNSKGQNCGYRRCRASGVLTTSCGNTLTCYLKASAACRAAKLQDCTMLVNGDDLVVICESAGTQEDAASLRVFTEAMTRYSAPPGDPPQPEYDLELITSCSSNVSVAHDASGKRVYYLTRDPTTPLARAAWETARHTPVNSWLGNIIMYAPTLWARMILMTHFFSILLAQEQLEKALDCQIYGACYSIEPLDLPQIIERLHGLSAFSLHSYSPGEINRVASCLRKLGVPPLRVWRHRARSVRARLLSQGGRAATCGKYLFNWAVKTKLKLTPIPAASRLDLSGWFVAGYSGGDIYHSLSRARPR
Outline: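 Δ21 NS5B (genotype 1b, BK […]) preincubated 15 min RT with inhibitor, 2 mM MnCl2, pH 7.4, 60–125 μM GTP; started with 20 μM CTP/ATP, 1 μM 3H-UTP, 5 nM template RNA, run 2–4 h RT. Spermine-precipitated RNA filter-captured, scintillation counted; IC50 from tight-binding (Morrison) fit.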

[3] = test system: genotype 1a-H77 subgenomic replicon cell line; assay: microbe, parasite or virus in culture; assay type: cell-based, HCV; details: Hepatitis C virus, read-out: EC50 1a
[4] = test system: genotype 1b-Con1 subgenomic replicon cell line; assay: microbe, parasite or virus in culture; assay type: cell-based, HCV; details: Hepatitis C virus, read-out: EC50 1b

T1 sequence (P27958 2421-2990, stated change not applied): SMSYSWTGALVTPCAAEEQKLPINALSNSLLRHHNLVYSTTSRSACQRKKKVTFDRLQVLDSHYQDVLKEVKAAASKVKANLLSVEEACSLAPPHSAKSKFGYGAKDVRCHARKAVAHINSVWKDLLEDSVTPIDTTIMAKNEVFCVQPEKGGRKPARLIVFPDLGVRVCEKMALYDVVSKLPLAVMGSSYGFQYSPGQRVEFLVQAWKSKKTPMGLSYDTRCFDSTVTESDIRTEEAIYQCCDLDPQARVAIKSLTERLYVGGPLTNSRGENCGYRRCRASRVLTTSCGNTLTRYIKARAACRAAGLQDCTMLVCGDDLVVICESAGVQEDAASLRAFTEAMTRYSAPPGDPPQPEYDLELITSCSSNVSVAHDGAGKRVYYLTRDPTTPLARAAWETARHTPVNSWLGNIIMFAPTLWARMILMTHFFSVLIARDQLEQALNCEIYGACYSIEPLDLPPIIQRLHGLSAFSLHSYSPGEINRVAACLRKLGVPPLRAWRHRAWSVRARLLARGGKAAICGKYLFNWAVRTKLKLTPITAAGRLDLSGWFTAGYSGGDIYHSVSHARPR

In the case of `COc1c(C(=O)Nc2ccc3c(c2)CC(=O)N3)cc(N2CCC(=O)NC2=O)cc1C(C)(C)C` [IA-L3-2.2, 3-tert-butyl-5-(2,4-dioxotetrahydropyrimidin-1(2H)-yl)-2-methoxy-N-(2-oxoindolin-5-yl)benzamide], the IC50 [1] is reported as 100 to 1000 nM, the IC50 [2] is reported as 100 to 1000 nM and the EC50 [3] is reported as > 1000 nM. The EC50 [4] was > 1000 nM.

For `COc1c(C(=O)Nc2ccccc2)cc(N2CCC(=O)NC2=O)cc1C(C)(C)C` [IA-L3-1.24, 3-tert-butyl-5-(2,4-dioxotetrahydropyrimidin-1(2H)-yl)-2-methoxy-N-phenylbenzamide], the IC50 [1] was 100 to 1000 nM, the IC50 [2] was 100 to 1000 nM and the EC50 [3] was > 1000 nM. The EC50 [4] was > 1000 nM.

`COc1c(C#Cc2ncc(NS(C)(=O)=O)cc2C)cc(N2CCC(=O)NC2=O)cc1C(C)(C)C` [IA-L2-1.24, N-(6-((3-tert-butyl-5-(2,4-dioxotetrahydropyrimidin-1(2H)-yl)-2-methoxyphenyl)ethynyl)-5-methylpyridin-3-yl)methanesulfonamide] was tested, and the IC50 [1] was < 10 nM, the IC50 [2] was 10 to 100 nM and the EC50 [3] was 100 to 1000 nM. For the same compound, the EC50 [4] was 10 to 100 nM.

In the case of `COc1c(C#Cc2ccc(NS(C)(=O)=O)cn2)cc(N2CCC(=O)NC2=O)cc1C(C)(C)C` [IA-L2-1.25, N-(6-((3-tert-butyl-5-(2,4-dioxotetrahydropyrimidin-1(2H)-yl)-2-methoxyphenyl)ethynyl)pyridin-3-yl)methanesulfonamide], the IC50 [1] is reported as < 10 nM, the IC50 [2] is reported as 10 to 100 nM and the EC50 [3] is reported as 100 to 1000 nM. The EC50 [4] was 10 to 100 nM.

In the case of `CNS(=O)(=O)Cc1ccc(NC(=O)c2cc(N3CCC(=O)NC3=O)cc(C(C)(C)C)c2O)cc1` [IA-L3-1.16, 3-tert-butyl-5-(2,4-dioxotetrahydropyrimidin-1(2H)-yl)-2-hydroxy-N-(4-(N-methylsulfamoylmethyl)phenyl)benzamide], the IC50 [1] is reported as > 1000 nM, the IC50 [2] is reported as 10 to 100 nM and the EC50 [3] is reported as > 1000 nM. The EC50 [4] was > 1000 nM.

In the case of `COc1c(C#Cc2ccc(NS(C)(=O)=O)c(Cl)c2)cc(N2CCC(=O)NC2=O)cc1C(C)(C)C` [IA-L2-1.15, N-(4-((3-tert-butyl-5-(2,4-dioxotetrahydropyrimidin-1(2H)-yl)-2-methoxyphenyl)ethynyl)-2-chlorophenyl)methanesulfonamide], the IC50 [1] is reported as 10 to 100 nM, the IC50 [2] is reported as 10 to 100 nM and the EC50 [3] is reported as 100 to 1000 nM. It also gave an EC50 [4] of 100 to 1000 nM.

For `COc1c(C(=O)Nc2ccc(NS(=O)(=O)c3ccccc3)cc2)cc(N2CCC(=O)NC2=O)cc1C(C)(C)C` [IA-L3-1.60, 3-tert-butyl-5-(2,4-dioxotetrahydropyrimidin-1(2H)-yl)-2-methoxy-N-(4-(phenylsulfonamido)phenyl)benzamide], the IC50 [1] was 10 to 100 nM, the IC50 [2] was 10 to 100 nM and the EC50 [3] was 100 to 1000 nM. It also gave an EC50 [4] of 10 to 100 nM.

With `COc1c(C#Cc2cc(F)c(NS(C)(=O)=O)cc2C(F)(F)F)cc(N2CCC(=O)NC2=O)cc1C(C)(C)C` [IA-L2-1.22, N-(4-((3-tert-butyl-5-(2,4-dioxotetrahydropyrimidin-1(2H)-yl)-2-methoxyphenyl)ethynyl)-2-fluoro-5-(trifluoromethyl)phenyl)methanesulfonamide] the IC50 [1] was 10 to 100 nM, the IC50 [2] was 10 to 100 nM and the EC50 [3] was 100 to 1000 nM. It also gave an EC50 [4] of 10 to 100 nM.

With `COc1c(-c2ccc3c(c2)CCC3CNS(C)(=O)=O)cc(-n2ccc(=O)[nH]c2=O)cc1C(C)(C)C` (centres unmarked) [IB-L0-2.17, N-((5-(3-tert-butyl-5-(2,4-dioxo-3,4-dihydropyrimidin-1(2H)-yl)-2-methoxyphenyl)-2,3-dihydro-1H-inden-1-yl)methyl)methanesulfonamide] the IC50 [1] was < 10 nM, the IC50 [2] was 10 to 100 nM and the EC50 [3] was 10 to 100 nM. For the same compound, the EC50 [4] was < 10 nM.

`COc1c(-c2cccc(/C=N/NS(C)(=O)=O)c2)cc(-n2ccc(=O)[nH]c2=O)cc1C(C)(C)C` [IB-L0-1.10, (E)-N′-((3′-tert-butyl-5′-(2,4-dioxo-3,4-dihydropyrimidin-1(2H)-yl)-2′-methoxybiphenyl-3-yl)methylene)methanesulfonohydrazide] was tested, and the IC50 [1] was 100 to 1000 nM, the IC50 [2] was 100 to 1000 nM and the EC50 [3] was > 1000 nM. The EC50 [4] was > 1000 nM.

`COc1c(C(=O)Nc2ccc(NS(C)(=O)=O)cc2C)cc(N2CCC(=O)NC2=O)cc1C(C)(C)C` [IA-L3-1.83, 3-tert-butyl-5-(2,4-dioxotetrahydropyrimidin-1(2H)-yl)-2-methoxy-N-(2-methyl-4-(methylsulfonamido)phenyl)benzamide] gave an IC50 [1] of 10 to 100 nM, an IC50 [2] of 100 to 1000 nM and an EC50 [3] of 100 to 1000 nM. The EC50 [4] was 100 to 1000 nM.
